We go through two compounds from ChEMBL document CHEMBL2331488, “Biotransformation of LASSBio-579 and pharmacological evaluation of p-hydroxylated metabolite a N-phenylpiperazine antipsychotic lead compound” (Eur J Med Chem, 2013).

Data set [1] has as its target Muscarinic acetylcholine receptor. Briefly: Displacement of [3H]-QNB from muscarinic receptor in Wistar rat brain membrane after 60 mins by liquid scintillation counting. In kind it is cell membranes. In general terms: Loss of bound radioactivity is the signal in a displacement assay; it reports binding, not function.
In data set [2] the target is T1, Alpha-1B adrenergic receptor (Rattus norvegicus, UniProt P15823).
T1 sequence (P15823 whole entry): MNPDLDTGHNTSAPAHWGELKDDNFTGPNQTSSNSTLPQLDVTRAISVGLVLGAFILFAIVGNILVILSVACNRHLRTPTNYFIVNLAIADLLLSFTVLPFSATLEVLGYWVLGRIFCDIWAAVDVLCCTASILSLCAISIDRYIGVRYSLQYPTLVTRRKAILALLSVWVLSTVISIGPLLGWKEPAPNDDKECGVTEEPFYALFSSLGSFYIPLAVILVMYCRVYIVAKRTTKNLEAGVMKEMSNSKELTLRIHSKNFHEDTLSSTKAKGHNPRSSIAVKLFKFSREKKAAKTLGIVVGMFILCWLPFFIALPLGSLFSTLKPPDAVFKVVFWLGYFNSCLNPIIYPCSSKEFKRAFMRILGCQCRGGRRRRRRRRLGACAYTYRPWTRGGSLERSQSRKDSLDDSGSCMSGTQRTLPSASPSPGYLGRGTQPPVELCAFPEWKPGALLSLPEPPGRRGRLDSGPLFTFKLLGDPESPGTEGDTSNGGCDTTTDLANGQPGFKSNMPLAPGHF
Kind of data set: Displacement of [3H]-prazosin from alpha1B adrenergic receptor in Wistar rat liver membrane after 45 mins by liquid scintillation counting. In kind it is cell membranes.

The target of data set [3] is T2, Alpha-2A adrenergic receptor (Rattus norvegicus, UniProt P22909).
T2 sequence (P22909 whole entry): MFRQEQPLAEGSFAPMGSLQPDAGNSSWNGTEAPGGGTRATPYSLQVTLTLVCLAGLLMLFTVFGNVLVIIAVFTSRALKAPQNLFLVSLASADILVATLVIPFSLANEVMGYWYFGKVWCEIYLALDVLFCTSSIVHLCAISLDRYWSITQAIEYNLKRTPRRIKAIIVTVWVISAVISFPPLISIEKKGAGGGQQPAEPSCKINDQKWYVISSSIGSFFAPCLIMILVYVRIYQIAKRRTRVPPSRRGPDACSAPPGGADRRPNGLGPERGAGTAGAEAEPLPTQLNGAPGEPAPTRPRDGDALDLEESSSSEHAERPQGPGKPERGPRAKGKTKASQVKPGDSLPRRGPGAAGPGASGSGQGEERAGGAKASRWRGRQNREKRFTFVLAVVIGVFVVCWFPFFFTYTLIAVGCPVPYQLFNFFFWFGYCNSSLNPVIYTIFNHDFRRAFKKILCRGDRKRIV
Kind of data set: Displacement of [3H]-RX821002 from alpha2A adrenergic receptor in Wistar rat cortical membrane after 45 mins by liquid scintillation counting. Type of data set: cell membranes.

For data set [4], the target named is T3, 5-hydroxytryptamine receptor 2C (Homo sapiens, UniProt P28335).
T3 sequence (P28335 whole entry): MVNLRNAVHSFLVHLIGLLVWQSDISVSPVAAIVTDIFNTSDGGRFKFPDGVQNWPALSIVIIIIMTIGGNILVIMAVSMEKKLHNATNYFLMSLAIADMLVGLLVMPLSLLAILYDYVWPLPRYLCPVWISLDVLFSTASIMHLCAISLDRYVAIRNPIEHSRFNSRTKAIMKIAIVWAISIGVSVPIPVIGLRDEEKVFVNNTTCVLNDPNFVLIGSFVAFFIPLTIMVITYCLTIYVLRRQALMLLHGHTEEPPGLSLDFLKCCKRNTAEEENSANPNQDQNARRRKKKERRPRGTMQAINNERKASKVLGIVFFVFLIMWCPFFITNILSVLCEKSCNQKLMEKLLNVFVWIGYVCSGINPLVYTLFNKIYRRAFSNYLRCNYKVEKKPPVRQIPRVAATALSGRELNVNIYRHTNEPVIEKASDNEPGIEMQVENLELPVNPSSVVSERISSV
Briefly: Displacement of [3H]-mesulergine from human 5HT2C receptor after 60 mins by liquid scintillation counting.

Data set [5] concerns the target T4, 5-hydroxytryptamine receptor 1A (Rattus norvegicus, UniProt P19327).
T4 sequence (P19327 whole entry): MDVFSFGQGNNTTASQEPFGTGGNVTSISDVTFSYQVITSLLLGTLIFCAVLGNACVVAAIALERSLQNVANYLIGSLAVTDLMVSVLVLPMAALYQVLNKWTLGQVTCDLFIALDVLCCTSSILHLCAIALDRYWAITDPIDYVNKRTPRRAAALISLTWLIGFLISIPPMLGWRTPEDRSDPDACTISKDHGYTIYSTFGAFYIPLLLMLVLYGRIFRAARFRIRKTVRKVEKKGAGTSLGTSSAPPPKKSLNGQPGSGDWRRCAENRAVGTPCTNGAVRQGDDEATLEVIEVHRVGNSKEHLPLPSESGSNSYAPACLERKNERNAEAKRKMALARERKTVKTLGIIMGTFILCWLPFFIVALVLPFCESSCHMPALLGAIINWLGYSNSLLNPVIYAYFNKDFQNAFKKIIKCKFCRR
Briefly: Displacement of [3H]-OH-8-DPAT from 5HT1A receptor in Wistar rat hippocampal membrane after 15 mins by liquid scintillation counting. Type of data set: cell membranes, Hippocampus.

Data set [6] concerns the target 5-hydroxytryptamine receptor 2A (Rattus norvegicus, UniProt P14842). Kind of data set: Displacement of [3H]-ketanserin from 5HT2A receptor in Wistar rat cortical membrane after 15 mins by liquid scintillation counting. In kind it is cell membranes.
The target of a further data set is T5, D(4) dopamine receptor (Homo sapiens, UniProt P21917).
T5 sequence (P21917 whole entry): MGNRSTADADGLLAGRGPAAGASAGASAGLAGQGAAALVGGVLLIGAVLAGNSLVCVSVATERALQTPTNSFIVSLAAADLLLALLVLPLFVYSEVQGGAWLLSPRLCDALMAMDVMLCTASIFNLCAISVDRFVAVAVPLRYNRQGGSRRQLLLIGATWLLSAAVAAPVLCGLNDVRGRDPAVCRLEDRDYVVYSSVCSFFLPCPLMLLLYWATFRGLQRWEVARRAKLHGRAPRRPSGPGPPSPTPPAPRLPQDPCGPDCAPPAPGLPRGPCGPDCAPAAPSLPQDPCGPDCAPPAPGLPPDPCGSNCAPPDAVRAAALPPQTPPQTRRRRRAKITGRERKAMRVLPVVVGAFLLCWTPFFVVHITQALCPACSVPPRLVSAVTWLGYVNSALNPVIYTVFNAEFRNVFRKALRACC
Kind of data set: Displacement of [3H]-YM-09151-2 from human D4 dopamine receptor after 120 mins by liquid scintillation counting.

The target in a further data set is D(2) dopamine receptor (Rattus norvegicus, UniProt P61169). Briefly: Displacement of [3H]-YM-09151-2 from D2 dopamine receptor in Wistar rat brain striatal membrane after 60 mins by liquid scintillation counting. Type of data set: cell membranes, Striatum.
The test system of a further data set is Plasma. Briefly: Drug metabolism in Wistar rat plasma assessed as p-hydroxylated metabolite level at 50 mg/kg, ip after 24 hrs. Type of data set: ADME, organism-based. The arrangement: dose 50 mg/kg, route intraperitoneal. The settings on record: in vivo.

Molecules are shown by their SMILES.

A word on the Ki: it is a measure of affinity in units of concentration, obtained from inhibition or displacement. The low end stands for higher affinity, the high end for lower affinity.

Sequence of D(2) dopamine receptor (P61169 whole entry): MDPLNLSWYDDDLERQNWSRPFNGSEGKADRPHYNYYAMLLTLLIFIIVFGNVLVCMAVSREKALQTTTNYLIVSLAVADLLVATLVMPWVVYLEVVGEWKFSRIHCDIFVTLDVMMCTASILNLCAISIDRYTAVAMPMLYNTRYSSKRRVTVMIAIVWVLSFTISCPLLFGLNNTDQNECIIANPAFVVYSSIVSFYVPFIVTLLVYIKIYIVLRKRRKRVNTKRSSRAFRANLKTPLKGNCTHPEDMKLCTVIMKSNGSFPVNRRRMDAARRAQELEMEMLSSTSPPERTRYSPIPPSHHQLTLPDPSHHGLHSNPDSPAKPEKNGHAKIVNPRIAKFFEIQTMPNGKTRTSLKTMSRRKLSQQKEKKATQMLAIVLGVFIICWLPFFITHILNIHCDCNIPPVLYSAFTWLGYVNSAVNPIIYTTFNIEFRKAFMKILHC
Sequence of 5-hydroxytryptamine receptor 2A (P14842 whole entry): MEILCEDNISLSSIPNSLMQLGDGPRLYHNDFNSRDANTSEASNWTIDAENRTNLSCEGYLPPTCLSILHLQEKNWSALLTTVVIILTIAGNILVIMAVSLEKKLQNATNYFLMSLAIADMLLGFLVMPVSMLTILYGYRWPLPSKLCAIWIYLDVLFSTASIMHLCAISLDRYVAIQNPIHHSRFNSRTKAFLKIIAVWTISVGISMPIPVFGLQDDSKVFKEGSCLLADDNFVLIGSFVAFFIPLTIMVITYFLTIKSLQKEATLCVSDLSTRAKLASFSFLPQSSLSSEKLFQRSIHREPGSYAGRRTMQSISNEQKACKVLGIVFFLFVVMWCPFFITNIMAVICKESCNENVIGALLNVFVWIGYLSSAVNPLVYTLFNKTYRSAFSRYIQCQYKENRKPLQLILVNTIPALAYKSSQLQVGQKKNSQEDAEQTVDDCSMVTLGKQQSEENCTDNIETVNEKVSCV

With `Oc1ccc(N2CCN(Cc3cnn(-c4ccc(Cl)cc4)c3)CC2)cc1`, the Ki in data set [1] was greater than 30 µM; in data set [2], 1.15 µM; in [3], 6.45 µM; in data set [4], 12.3 µM; in data set [5], 5.87 µM; in data set [6] it was 8.22 µM. The Ki was 0.034 µM at D(4) dopamine receptor and 0.53 µM on D(2) dopamine receptor.

On to `Clc1ccc(-n2cc(CN3CCN(c4ccccc4)CC3)cn2)cc1`, for which the Ki in data set [1] is greater than 30 µM; in data set [2], 3 µM; in data set [3], 2.49 µM; in [4] it was 8.44 µM; in data set [5], 0.21 µM; in [6] it was 6.82 µM. Besides, the results for the Ki at D(4) dopamine receptor and at D(2) dopamine receptor were 0.17 µM and 0.38 µM, respectively. For the same compound, the Drug metabolism result in the data set with Plasma was “Active”.
